Data on three molecules can be found in ChEMBL document CHEMBL2062491, “Absolute structures of monoterpenoids with a δ-lactone-containing skeleton from Ligularia hodgsonii” (J Nat Prod, 2012).

Holding throughout (assay type): functional, cell-based
One experiment deals with HeLa. In words: Cytotoxicity against human HeLa cells after 48 hrs by SRB assay. For orientation: In SRB staining, fixed cells bind dye roughly in proportion to their protein.
In a further experiment the test system is HL-60. In words: Cytotoxicity against human HL60 cells after 48 hrs by SRB assay.
The next experiment relates to SMMC-7721. The experiment in a line: Cytotoxicity against human SMMC7721 cells after 48 hrs by SRB assay.

The IC50 is the concentration that inhibits the measured activity by half. `COC(=O)[C@]1([C@H](C)Cl)C[C@@H](C)[C@@](C)(OC(C)=O)C(=O)O1` [LIGUHODGCINS A]: the IC50 stood at 171 µM with HeLa (hela), 141 µM with HL-60 (hl-60) and 156 µM with SMMC-7721 (smmc-7721).
The matching figures for `COC(=O)[C@]1(C)OC(=O)[C@]2(C[C@H]1C)O[C@@H]2C` [LIGUHODGCINS B]: 168 µM, 151 µM and 162 µM.
For `CO[C@@]12[C@H](COC(N)=O)C3=C(C(=O)C(C)=C(N)C3=O)N1C[C@@H]1N[C@@H]12` [MITOMYCIN], the IC50 with HeLa (Homo sapiens, HeLa, 48 h, read-out: IC50) was found to be 3.4 µM; in the experiment on HL-60 (Homo sapiens, HL-60, 48 h, read-out: IC50), 1.8 µM; in the experiment with SMMC-7721 (Homo sapiens, SMMC-7721, 48 h, read-out: IC50) it was 5.6 µM.
